Laboratory results as given in patent US9593144B2, “FPR1 antagonist derivatives and use thereof” (CHANG GUNG UNIVERSITY, priority 2014, dated 2017).
Square brackets hold non-standard residues; d marks the D form. Peptide text beside a SMILES is read from it. * marks the point of attachment. Bz = O=C(c1ccccc1)*

Columns and labels:
[1] = biological target: T1, formyl peptide receptor 1 (FPR1) (Homo sapiens, UniProt P21462); test: Receptor test: competition with fluorescent FNLFNYK for binding to FPR1 on human neutrophils; conditions: membranes of human neutrophils; read-out: inhibition of FNLFNYK bound to FPR1, IC50
T1 construct: the effect of FNLFNYK combined with FPR1 on the membranes of human neutrophils; endogenous in cells; host or cells: human neutrophils
T1 sequence (P21462 1-350): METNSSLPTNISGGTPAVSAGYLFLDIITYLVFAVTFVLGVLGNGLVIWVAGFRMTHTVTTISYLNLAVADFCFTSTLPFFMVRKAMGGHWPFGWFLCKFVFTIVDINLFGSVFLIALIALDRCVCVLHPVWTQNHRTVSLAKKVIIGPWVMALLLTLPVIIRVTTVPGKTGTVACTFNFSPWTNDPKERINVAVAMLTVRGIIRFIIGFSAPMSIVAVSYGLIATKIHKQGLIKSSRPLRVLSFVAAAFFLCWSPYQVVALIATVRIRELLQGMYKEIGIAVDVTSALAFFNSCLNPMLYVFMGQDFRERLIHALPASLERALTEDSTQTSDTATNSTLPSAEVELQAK
Description: Membranes of human neutrophils contain fMLF receptor, formyl peptide receptor 1 (FPR1), with which formyl-NIe-Leu-Phe-NIe-Tyr-Lys (FNLFNYK) carrying the fluorescence property was combined with FPR1 and competed with the candidate compound for receptor binding. Therefore, by binding with the receptor, it was possible to further clarify whether the compound interacts with the receptor.

- IC50 [1]: 2020 ± 340 nM
- melting point: 174 to 176 °C
SMILES: COC(=O)[C@@H](Cc1ccccc1)NC(=O)[C@H](Cc1c[nH]c2ccccc12)NC(=O)c1ccccc1 [Compound 3, N—(N-Benzoyl-L-tryptophanyl)-D-phenylalanine methyl ester] (Bz-Trp-[dF]-OMe)
